# In the supplement of paper PMC11451515:
# Assays:
# Test in all cases: AUC of viability dose-response curve (% viability x log10 dose units); higher = less sensitive
# Conditions in all cases: 48 h
# [1] = tested on: P12-Ichikawa
# Procedure, shortened: (§1)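 Medium-adapted leukemia cells in 1536-well plates, at 500 or 1000 cells/well, were incubated for 48 h at 37°C with library compounds in DMSO at 11 threefold doses from 47 μM to 0.79 nM. CellTiter-Glo One luminescence normalised per plate to DMSO and cell-free wells was fitted with a four-parameter log-logistic model over log10 doses. Area under the curve was integrated from this fit by trapezoidal rule, with curves beyond full viability scaled and failed quality-control curves removed.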
# [2] = tested on: SEM cells
# Procedure, shortened: as §1
# [3] = tested on: NOMO1
# Procedure, shortened: as §1
# [4] = RPMI 5 mM glucose + 10% dialyzed FBS
smiles,measurement,setting,value
CN(C)CCc1c[nH]c2ccc(C[S+](=O)([O-])N3CCCC3)cc12,AUC of viability dose-response curve,[1]; HPLM + 10% dialyzed FBS,471
same,AUC of viability dose-response curve,[1]; RPMI 5 mM glucose + 10% FBS,466
same,AUC of viability dose-response curve,[1]; [4],466
same,AUC of viability dose-response curve,[2]; HPLM + 10% dialyzed FBS,453
same,AUC of viability dose-response curve,[2]; RPMI 5 mM glucose + 10% FBS,427
same,AUC of viability dose-response curve,[2]; [4],433
same,AUC of viability dose-response curve,[3]; HPLM + 10% dialyzed FBS,459
same,AUC of viability dose-response curve,[3]; RPMI 5 mM glucose + 10% FBS,468
same,AUC of viability dose-response curve,[3]; [4],460
N=C(N)Nc1ccc(C(=O)Oc2ccc3cc(C(=N)N)ccc3c2)cc1,AUC of viability dose-response curve,[1]; HPLM + 10% dialyzed FBS,437
same,AUC of viability dose-response curve,[1]; RPMI 5 mM glucose + 10% FBS,443
same,AUC of viability dose-response curve,[1]; [4],404
same,AUC of viability dose-response curve,[2]; HPLM + 10% dialyzed FBS,419
same,AUC of viability dose-response curve,[2]; RPMI 5 mM glucose + 10% FBS,392
same,AUC of viability dose-response curve,[2]; [4],441
same,AUC of viability dose-response curve,[3]; HPLM + 10% dialyzed FBS,446
same,AUC of viability dose-response curve,[3]; RPMI 5 mM glucose + 10% FBS,406
same,AUC of viability dose-response curve,[3]; [4],396
Cc1c(C(=O)c2cccc3ccccc23)c2cccc3c2n1[C@H](CN1CCOCC1)CO3,AUC of viability dose-response curve,[1]; HPLM + 10% dialyzed FBS,417
same,AUC of viability dose-response curve,[1]; RPMI 5 mM glucose + 10% FBS,366
same,AUC of viability dose-response curve,[1]; [4],397
same,AUC of viability dose-response curve,[2]; HPLM + 10% dialyzed FBS,372
same,AUC of viability dose-response curve,[2]; RPMI 5 mM glucose + 10% FBS,375
same,AUC of viability dose-response curve,[2]; [4],403
same,AUC of viability dose-response curve,[3]; HPLM + 10% dialyzed FBS,432
same,AUC of viability dose-response curve,[3]; RPMI 5 mM glucose + 10% FBS,404
same,AUC of viability dose-response curve,[3]; [4],394
O=C1CCCC(=O)C1C(=O)c1ccc(C(F)(F)F)cc1[N+](=O)[O-],AUC of viability dose-response curve,[1]; HPLM + 10% dialyzed FBS,465
same,AUC of viability dose-response curve,[1]; RPMI 5 mM glucose + 10% FBS,450
same,AUC of viability dose-response curve,[1]; [4],468
same,AUC of viability dose-response curve,[2]; HPLM + 10% dialyzed FBS,474
same,AUC of viability dose-response curve,[2]; RPMI 5 mM glucose + 10% FBS,464
same,AUC of viability dose-response curve,[2]; [4],466
same,AUC of viability dose-response curve,[3]; HPLM + 10% dialyzed FBS,403
same,AUC of viability dose-response curve,[3]; RPMI 5 mM glucose + 10% FBS,471
same,AUC of viability dose-response curve,[3]; [4],463
C[N]1N=CC=C1C/2=C(\C)N(C(=O)C(=C2)/C(=O)NCC3=NC=C(C=C3)[S+](C)([O-])=O)C4=CC=CC(=C4)C(F)(F)F,AUC of viability dose-response curve,[1]; HPLM + 10% dialyzed FBS,462
same,AUC of viability dose-response curve,[1]; RPMI 5 mM glucose + 10% FBS,454
same,AUC of viability dose-response curve,[1]; [4],455
same,AUC of viability dose-response curve,[2]; HPLM + 10% dialyzed FBS,466
same,AUC of viability dose-response curve,[2]; RPMI 5 mM glucose + 10% FBS,453
same,AUC of viability dose-response curve,[2]; [4],468
NCCc1ccc(O)c(O)c1,AUC of viability dose-response curve,[1]; HPLM + 10% dialyzed FBS,464
same,AUC of viability dose-response curve,[1]; RPMI 5 mM glucose + 10% FBS,463
same,AUC of viability dose-response curve,[1]; [4],474
same,AUC of viability dose-response curve,[2]; HPLM + 10% dialyzed FBS,431
same,AUC of viability dose-response curve,[2]; RPMI 5 mM glucose + 10% FBS,450
same,AUC of viability dose-response curve,[2]; [4],449
same,AUC of viability dose-response curve,[3]; HPLM + 10% dialyzed FBS,410
same,AUC of viability dose-response curve,[3]; RPMI 5 mM glucose + 10% FBS,426
same,AUC of viability dose-response curve,[3]; [4],429
OCCN(CCO)c1nc(N2CCCCC2)c2nc(N(CCO)CCO)nc(N3CCCCC3)c2n1,AUC of viability dose-response curve,[1]; HPLM + 10% dialyzed FBS,459
same,AUC of viability dose-response curve,[1]; RPMI 5 mM glucose + 10% FBS,467
same,AUC of viability dose-response curve,[1]; [4],463
same,AUC of viability dose-response curve,[2]; HPLM + 10% dialyzed FBS,454
same,AUC of viability dose-response curve,[2]; RPMI 5 mM glucose + 10% FBS,457
same,AUC of viability dose-response curve,[2]; [4],461
same,AUC of viability dose-response curve,[3]; HPLM + 10% dialyzed FBS,459
same,AUC of viability dose-response curve,[3]; RPMI 5 mM glucose + 10% FBS,438
same,AUC of viability dose-response curve,[3]; [4],465
O=C(NCc1ccccc1)c1csc(Nc2ccncn2)n1,AUC of viability dose-response curve,[1]; HPLM + 10% dialyzed FBS,386
same,AUC of viability dose-response curve,[1]; RPMI 5 mM glucose + 10% FBS,358
same,AUC of viability dose-response curve,[1]; [4],367
same,AUC of viability dose-response curve,[2]; HPLM + 10% dialyzed FBS,310
same,AUC of viability dose-response curve,[2]; RPMI 5 mM glucose + 10% FBS,287
same,AUC of viability dose-response curve,[2]; [4],310
same,AUC of viability dose-response curve,[3]; HPLM + 10% dialyzed FBS,345
same,AUC of viability dose-response curve,[3]; RPMI 5 mM glucose + 10% FBS,331
same,AUC of viability dose-response curve,[3]; [4],335
O=C1N\C=N/C2=C1C=N[NH]2,AUC of viability dose-response curve,[1]; HPLM + 10% dialyzed FBS,393
same,AUC of viability dose-response curve,[1]; RPMI 5 mM glucose + 10% FBS,397
same,AUC of viability dose-response curve,[1]; [4],398
same,AUC of viability dose-response curve,[2]; HPLM + 10% dialyzed FBS,359
same,AUC of viability dose-response curve,[2]; RPMI 5 mM glucose + 10% FBS,350
same,AUC of viability dose-response curve,[2]; [4],384
same,AUC of viability dose-response curve,[3]; HPLM + 10% dialyzed FBS,425
same,AUC of viability dose-response curve,[3]; RPMI 5 mM glucose + 10% FBS,421
same,AUC of viability dose-response curve,[3]; [4],382
